The results in this text go back to patent publication US8933039B2 (NPS Pharmaceuticals, Inc., priority 1995, dated 2015).

This assay has as its system CD1 mice. The assay can be described thus: Intestinotrophic activity assessment: small bowel weight in mice. Particulars: for % Activity (small bowel inducing activity relative to native rat GLP-2(1-33) = 100%): mice, as Example 4; for % Increase in small bowel weight: CD1 mice, 2.5 μg peptide s.c. b.i.d. in PBS, sacrificed 10 or 14 days, relative to vehicle only. It is filed as in vivo. The protocol:
Recipients were CD1 mice obtained from Charles River Laboratory (Ontario, Canada). The CD1 mice were aged-matched females at time of injection (n=3-4 per group), 6 weeks of age, unless otherwise specified. The animals were allowed a minimum of 24 hours to acclimatize to the laboratory facility before the initiation of each experiment. Animals were identified by ear punch. The mice were not restricted by diet or activity during the experiments. The light/dark cycle was 12 hours, between 6 pm to 6 am. Controls were age- and sex-matched (n=3-4) animals. Mice were injected subcutaneously, twice a day (b.i.d.), with 2.5 μg peptide in a total volume of 0.5 cc of PBS and were monitored daily in the laboratory facility. Animals were sacrificed 10 or 14 days after injection, and were fasted at least 20 hours before sacrifice.
The mice were anaesthetised with CO2 and exsanguinated by cardiac puncture. Blood was collected in 75 μl of TED (Trasysol; EDTA (5000 KIU/ml: 1.2 mg/ml; Diprotin-A), and the blood was centrifuged at 14 k×g for 5 minutes and the plasma was stored at −70 prior to analysis. The small bowel was removed from the peritoneal cavity, from pylorus to cecum, cleaned weighed and measured. For comparative purpose, sections from each animal were obtained from the identical anatomical position. Fragments each measuring 1.5-2.0 cm in length were obtained 8±2 cm, 18±2 cm, 32±2 cm from pylorus for histomorphometry representing proximal jejunum, distal jejunum and distal ileum. Each small bowel fragment was opened longitudinally on its antimesenteric border in a tissue block and then placed on 10% formalin (vol./vol.) overnight, then transferred to 70% […].
Percentage change in small bowel weight was calculated by dividing the mean change in bowel weight of analog treated mice, relative to mice treated with vehicle only, by the mean bowel weight of mice treated with vehicle only, and multiplying this figure by 100.
Experiments assessing the small bowel inducing activity of various analogs was repeated as described above for Example 4. In these experiments, the small bowel inducing activity of each analog in mice was calculated relative to that of native rat GLP-2(1-33) (expressed as 100% of activity). Resistance of analogs to DPP-IV cleavage was performed as described above in Example 3.

Non-standard residues stand in square brackets, D forms with d. Residues, ends and D or L forms follow the SMILES beside them. Met(O) = CS(=O)CC[C@H](N)C(=O)O; Nle = CCCC[C@H](N)C(=O)O

With `CC[C@H](C)[C@H](NC(=O)[C@H](Cc1ccccc1)NC(=O)[C@H](CC(=O)O)NC(=O)[C@H](CCCNC(=N)N)NC(=O)[C@H](C)NC(=O)[C@H](C)NC(=O)[C@H](CC(C)C)NC(=O)[C@H](CC(N)=O)NC(=O)[C@H](CC(=O)O)NC(=O)[C@H](CC(C)C)NC(=O)[C@@H](NC(=O)[C@@H](NC(=O)[C@H](CC(N)=O)NC(=O)[C@H](CCSC)NC(=O)[C@H](CCC(=O)O)NC(=O)[C@H](CC(=O)O)NC(=O)[C@H](CO)NC(=O)[C@H](Cc1ccccc1)NC(=O)[C@H](CO)NC(=O)CNC(=O)[C@H](CC(=O)O)NC(=O)[C@H](C)NC(=O)[C@@H](N)Cc1c[nH]cn1)[C@@H](C)O)[C@@H](C)CC)C(=O)N[C@@H](CC(N)=O)C(=O)N[C@@H](Cc1c[nH]c2ccccc12)C(=O)N[C@@H](CC(C)C)C(=O)N[C@H](C(=O)N[C@@H](CCC(N)=O)C(=O)N[C@H](C(=O)N[C@@H](CCCCN)C(=O)N[C@H](C(=O)N[C@H](C(=O)N[C@@H](CC(=O)O)C(=O)NCCCCNC(=N)N)[C@@H](C)O)[C@@H](C)CC)[C@@H](C)O)[C@@H](C)CC` [[Agm34]hGLP-2(1-34)], the “% Activity (small bowel inducing activity relative to native rat GLP-2(1-33) = 100%)” value is given as 97%.
Still for that read-out and setting: to `CC[C@H](C)[C@H](NC(=O)[C@H](Cc1ccccc1)NC(=O)[C@H](CC(=O)O)NC(=O)[C@H](CCCNC(=N)N)NC(=O)[C@@H](NC(=O)[C@H](C)NC(=O)[C@H](CC(C)C)NC(=O)[C@H](CC(N)=O)NC(=O)[C@H](CC(=O)O)NC(=O)[C@H](CC(C)C)NC(=O)[C@@H](NC(=O)[C@@H](NC(=O)[C@H](CC(N)=O)NC(=O)[C@H](CC[S+](C)[O-])NC(=O)[C@H](CCC(=O)O)NC(=O)[C@H](CC(=O)O)NC(=O)[C@H](CO)NC(=O)[C@H](Cc1ccccc1)NC(=O)[C@H](CO)NC(=O)CNC(=O)[C@H](CC(=O)O)NC(=O)[C@H](C)NC(=O)[C@@H](N)Cc1c[nH]cn1)[C@@H](C)O)[C@@H](C)CC)[C@@H](C)O)C(=O)N[C@@H](CC(N)=O)C(=O)N[C@@H](Cc1c[nH]c2ccccc12)C(=O)N[C@@H](CC(C)C)C(=O)N[C@H](C(=O)N[C@@H](CCC(N)=O)C(=O)N[C@H](C(=O)N[C@@H](CCCCN)C(=O)N[C@H](C(=O)N[C@H](C(=O)N[C@@H](CC(=O)O)C(=O)O)[C@@H](C)O)[C@@H](C)CC)[C@@H](C)O)[C@@H](C)CC` (stereo partly drawn) [[Met(O)10]ratGLP-2(1-33)] (H-HADGSFSDE[Met(O)]NTILDNLATRDFINWLIQTKITD-OH) belongs 18%.
Regarding `CCCC[C@H](NC(=O)[C@H](CCC(=O)O)NC(=O)[C@H](CC(=O)O)NC(=O)[C@H](CO)NC(=O)[C@H](Cc1ccccc1)NC(=O)[C@H](CO)NC(=O)CNC(=O)[C@H](CC(=O)O)NC(=O)[C@H](C)NC(=O)[C@@H](N)Cc1c[nH]cn1)C(=O)N[C@@H](CC(N)=O)C(=O)N[C@H](C(=O)N[C@H](C(=O)N[C@@H](CC(C)C)C(=O)N[C@@H](CC(=O)O)C(=O)N[C@@H](CC(N)=O)C(=O)N[C@@H](CC(C)C)C(=O)N[C@@H](C)C(=O)N[C@H](C(=O)N[C@@H](CCCNC(=N)N)C(=O)N[C@@H](CC(=O)O)C(=O)N[C@@H](Cc1ccccc1)C(=O)N[C@H](C(=O)N[C@@H](CC(N)=O)C(=O)N[C@@H](Cc1c[nH]c2ccccc12)C(=O)N[C@@H](CC(C)C)C(=O)N[C@H](C(=O)N[C@@H](CCC(N)=O)C(=O)N[C@H](C(=O)N[C@@H](CCCCN)C(=O)N[C@H](C(=O)N[C@H](C(=O)N[C@@H](CC(=O)O)C(=O)O)[C@@H](C)O)[C@@H](C)CC)[C@@H](C)O)[C@@H](C)CC)[C@@H](C)CC)[C@@H](C)O)[C@@H](C)CC)[C@@H](C)O` [[Nlel0]ratGLP-2(1-33), [Nle^10]ratGLP-2(1-33)] (H-HADGSFSDE[Nle]NTILDNLATRDFINWLIQTKITD-OH), the “% Increase in small bowel weight” value is 52% and the “% Activity (small bowel inducing activity relative to native rat GLP-2(1-33) = 100%)” value was 100%.
Consider `CC[C@H](C)[C@H](NC(=O)[C@H](Cc1ccccc1)NC(=O)[C@H](CC(=O)O)NC(=O)[C@H](CCCNC(=N)N)NC(=O)[C@H](C)NC(=O)[C@H](C)NC(=O)[C@H](CC(C)C)NC(=O)[C@H](CC(N)=O)NC(=O)[C@H](CC(=O)O)NC(=O)[C@H](CC(C)C)NC(=O)[C@@H](NC(=O)[C@@H](NC(=O)[C@H](CC(N)=O)NC(=O)[C@H](CCSC)NC(=O)[C@H](CCC(=O)O)NC(=O)[C@H](CC(=O)O)NC(=O)[C@H](CO)NC(=O)[C@H](Cc1ccccc1)NC(=O)[C@H](CO)NC(=O)CNC(=O)[C@H](CC(=O)O)NC(=O)[C@H](C)NC(=O)[C@@H](N)Cc1c[nH]cn1)[C@@H](C)O)[C@@H](C)CC)C(=O)N[C@@H](CC(N)=O)C(=O)N[C@@H](Cc1c[nH]c2ccccc12)C(=O)N[C@@H](CC(C)C)C(=O)N[C@H](C(=O)N[C@@H](CCC(N)=O)C(=O)N[C@H](C(=O)N[C@@H](CCCCN)C(=O)N[C@H](C(=O)N[C@H](C(=O)N[C@@H](CC(=O)O)C(=O)N[C@@H](Cc1ccc(O)cc1)C(=O)O)[C@@H](C)O)[C@@H](C)CC)[C@@H](C)O)[C@@H](C)CC` [[Tyr34]hGLP-2(1-34)], for which the “% Activity (small bowel inducing activity relative to native rat GLP-2(1-33) = 100%)” value is listed as 135%.
The same measure, in the same setting: the figure for “H-GSFSDEMNTILDNLATRDFINWLIQTKITD-OH [ratGLP-2(4-33)]” is 6%.
On to “H-HADGSFSDELNTILDNLATRDFINWLIQTKITD-OH [[Leu10]ratGLP-2(1-33)]”, for which the “% Activity (small bowel inducing activity relative to native rat GLP-2(1-33) = 100%)” value was 51%. Further, for the setting “listed as [Leu^10]rGLP-2”, the “% Increase in small bowel weight” value was 26%.
With “H-HADGSFSDEMNTILDNLAAQDFINWLIQTKITD-OH [[Gln20]hGLP-2(1-33)]”, the “% Activity (small bowel inducing activity relative to native rat GLP-2(1-33) = 100%)” value is given as 80%.
On to “H-HADGSFSDEMNTILDNLAARDFINWLIQTKITN-OH [[Asn33]hGLP-2(1-33)]”, for which the “% Activity (small bowel inducing activity relative to native rat GLP-2(1-33) = 100%)” value came to 91%.
On to “H-HADGSFSDEMNTILDNLAARDFVQWLIQTKITD-OH [[Val23,Gln24]hGLP-2(1-33)]”, for which the “% Increase in small bowel weight” value amounted to 36% and the “% Activity (small bowel inducing activity relative to native rat GLP-2(1-33) = 100%)” value is recorded as 82%.
For “H-HADGSFSDEMNTILDNLATKDFINWLIQTKITD-OH [[Lys20]ratGLP-2(1-33)]”, in that order: 62% and 120%.
Turning to “H-HADGSFSDEMNTILDNLATRDFINW-OH [ratGLP-2(1-25)]”, the “% Activity (small bowel inducing activity relative to native rat GLP-2(1-33) = 100%)” value stood at 8%.
On the same count and under the same terms, the figure for “H-HADGSFSDEMNTILDNLATRDFINWLIQTK-OH [ratGLP-2(1-30)]” is 23%.
Regarding “H-HADGSFSDEMNTILDNLATRDFINWLIQTKITD-NH2 [ratGLP-2(1-33)amide]”, the “% Increase in small bowel weight” value came out at 23% and the “% Activity (small bowel inducing activity relative to native rat GLP-2(1-33) = 100%)” value stood at 56%.
For “H-HADGSFSDEMNTILDSRRARDFINWLIQTKITD-OH [[Ser16, Arg17, Arg18]hGLP-2(1-33)]”, the “% Activity (small bowel inducing activity relative to native rat GLP-2(1-33) = 100%)” value was found to be 59%.
As for “H-HADGSFSDYSKYLDNLAARDFINWLIQTKITD-OH [[Tyr9, Ser10, Lys11, Tyr12, des-Ile13]hGLP-2(1-33)]”, the “% Increase in small bowel weight” value came out at 41% and the “% Activity (small bowel inducing activity relative to native rat GLP-2(1-33) = 100%)” value was 94%.
As for “H-HADGTFSDEMNTILDNLAARDFINWLIQTKITD-OH [[Thr5]hGLP-2(1-33)]”, the “% Activity (small bowel inducing activity relative to native rat GLP-2(1-33) = 100%)” value came to 73%.
Regarding “H-HGDGSASDEMNTILDNLAARDFINWLIQTKITD-OH [[Gly2,Ala6]hGLP-2(1-33)]”, the “% Increase in small bowel weight” value came out at 18% and the “% Activity (small bowel inducing activity relative to native rat GLP-2(1-33) = 100%)” value is 67%.
As to “H-HGDGSFADEMNTILDNLAARDFINWLIQTKITD-OH [[Gly2,Ala7]hGLP-2(1-33)]”, the “% Increase in small bowel weight” value came to 22% and the “% Activity (small bowel inducing activity relative to native rat GLP-2(1-33) = 100%)” value is recorded as 82%.
For “H-HGDGSFSAEMNTILDNLAARDFINWLIQTKITD-OH [[Gly2,Ala8]hGLP-2(1-33)]”, in that order: 33% and 120%.
Turning to “H-HGDGSFSDAMNTILDNLAARDFINWLIQTKITD-OH [[Gly2,Ala9]hGLP-2(1-33)]”, the “% Increase in small bowel weight” value was 31% and the “% Activity (small bowel inducing activity relative to native rat GLP-2(1-33) = 100%)” value turned out to be 112%.
For “H-HGDGSFSDEANTILDNLAARDFINWLIQTKITD-OH [[Gly2,Ala10]hGLP-2(1-33)]”, in that order: 33% and 82%.
Take “H-HGDGSFSDEMATILDNLAARDFINWLIQTKITD-OH [[Gly2,Ala11]hGLP-2(1-33)]”: the “% Increase in small bowel weight” value was 42% and the “% Activity (small bowel inducing activity relative to native rat GLP-2(1-33) = 100%)” value is 150%.
In the case of “H-HGDGSFSDEMNAILDNLAARDFINWLIQTKITD-OH [[Gly2,Ala12]hGLP-2(1-33)]”, the “% Increase in small bowel weight” value is recorded as 18% and the “% Activity (small bowel inducing activity relative to native rat GLP-2(1-33) = 100%)” value is 67%.
